{"source": "patent US7939562B2", "about": "“Amphiphilic derivatives for the production of vesicles, micelles and complexants, and precursors thereof” (Ben-Gurion University of The Negev Research and Development …, priority 2001, dated 2011)", "key": {"[1]": {"tested_on": "bronchial epithelial cells", "experiment": "Uptake of complexed DNA plasmid by cells (confocal microscope)", "assay_type": "cell-based", "conditions": "DNA plasmid complexed with the amphiphile, compared to non-complexed DNA", "protocol": "Purified Derivative 4 was used to complex with a DNA plasmid (purchased from Sigma Chemicals, 5 ng/microliter, stained in FITC; ULSIS Alexa Fluor® 488 Nucleic acid labeling kit) or rhodamine. The complexation was achieved by mixing the amphiphilic Derivative 4 (200 microliters containing […] of the compound) with […] of the DNA sample and letting it shake gently for a short period of time. The mixture is not sonicated to prevent vesicle formation in which the DNA is encapsulated. The sample was then incubated in a culture containing bronchial epithelial cells."}, "[2]": {"tested_on": "bronchial epithelial cells", "experiment": "Uptake of vesicle-encapsulated 14C-methylated albumin by cells (radioactivity)", "assay_type": "cell-based", "conditions": "14C-methylated albumin encapsulated in vesicles, compared with non-encapsulated albumin", "protocol": "Derivative 10 was made into vesicles according to Example 41. […] The same method was used to encapsulate ^14C-methylated albumin (purchased from Sigma Chemicals) by adding 0.2 mg of the tagged albumin. The vesicles were purified by filtration and the presence of radioactivity in the purified sample indicated encapsulation."}, "Vesicle size by TEM": {"experiment": "Vesicle size by TEM", "assay_type": "physicochemical", "set-up": "unit not given here", "conditions": "bilayer vesicles", "protocol": "Two main methods were used to prepare the vesicles: In method (1), 100-200 μl of the amphiphilic derivative dissolved in methanol was injected into 2-4 ml of an aqueous solution which contained the compound to be encapsulated. The mixture was sonicated in a bath sonicator (Branson 2510) for a short (1,2,5,10 min) or long (60 min) period, depending on the desired vesicle size (dozen or hundred nanometer) and uniformity. In method (2), the amphiphilic derivative dissolved in methanol (250-1000 μl) was added to a 50-ml round-bottom flask, the solvent was removed under reduced pressure by a rotary evaporator and a thin oily film was formed on the flask bottom. An aqueous solution containing the compound desired to encapsulate (1-4 ml) was added to the flask and the mixture was sonicated in a bath sonicator for 1-5 min at 60° C.\nTEM (transmission electron microscopy) experiments were carried out using negative staining technique, employing saturated uranyl acetate solution (after centrifuge). The grid was immersed in the vesicle solution for 1.5 minutes and then was stained in the uranyl acetate solution for 1.5 min. The grid (300 mesh copper Formvar/carbon) was then dried at room temperature on filter paper. […]\nDerivative 10 was made into vesicles according to Example 41. […] The vesicles were purified by filtration and the presence of radioactivity in the purified sample indicated encapsulation."}}}
{"compound": "CCCCCC(OC(=O)CN(CCCN)CCCCN)C(O)CCCCC(=O)OC", "note": "(stereo not drawn) [Derivative 4]", "values": [{"measurement": "uptake of DNA by the cells", "setting": "[1]", "result": "significantly greater uptake of DNA"}]}
{"compound": "CCCCCCCCCCCC[N+](C)(C)CC(=O)OC(CCCCC)C(O)C/C=C/CC(=O)NCCNC(=O)C/C=C/CC(O)C(CCCCC)OC(=O)C[N+](C)(C)CCCCCCCCCCCC", "note": "(stereo not drawn) [Derivative 10]", "values": [{"measurement": "uptake of the albumin by the cells", "setting": "[2]", "result": "significantly greater uptake of the albumin"}, {"measurement": "vesicle size", "setting": "Vesicle size by TEM", "result": 350}]}
